In US20250002453A1, “PHARMACEUTICALLY ACCEPTABLE SALT OF ELIGLUSTAT AND CRYSTAL FORM THEREOF” (SPEROGENIX (SHANGHAI) MEDTECH CO., LTD., priority 2021, published 2025):

Experiment: Deliquescence / moisture uptake observed under room humidity or during XRPD testing
Format: physicochemical
Details: under room humidity conditions
Protocol: Free crystalline form A and 0.5 equivalent of L-malic acid were suspended and stirred in EtOAc for 1 day at room temperature to obtain the sample. The solid was separated by centrifugation and dried under vacuum to obtain crystalline form A of malate.
Free crystalline form A and 0.5 equivalent of L-malic acid were suspended and stirred in IPAc/n-heptane (1:5, v:v) for 1 day at room temperature and 2 days at 40° C., and then the solid was separated by centrifugation. Upon vacuum drying, crystalline form B of malate was obtained.

deliquescence / moisture absorption: deliquesced significantly
SMILES: CCCCCCCC(=O)NC(CN1CCCC1)C(O)c1ccc2c(c1)OCCO2.O=C(O)CC(O)C(=O)O (stereo not shown) [Crystalline form A of malate]
